Where a name gives a salt, the structure may show the parent alone.
Assays:
[1] = system: right atrium preparation; test: Action on isolated cardiac muscle of guinea-pig: number of beats of right atrium preparation; conditions: for action on the heart relative to the action on the corpus cavernosum: EC30 heart compared with IC50 corpus cavernosum of Experimental example 2; for EC30 Heart rate: number of beats, 30% of isoproterenol maximum reaction
Procedure: After sacrificing male Hartley guinea-pigs by venesection, the heart was isolated and transferred to Krebs-Henseleit solution was adequately aerated with a 95% O2/5% CO2. After promptly separating the heart into the atria and ventricles, a papillary muscle preparation from the right ventricle and a right atrium preparation were prepared. Each preparation was suspended from an FD pickup (TB-611T, Nihon Koden) at a resting tension of 0.5 g (about 5 mN) for the load in a nutrient solution consisting of organ bath maintained at 31°C. Automatic contraction of the right atrium amplified by a carrier amplifier (AP-600G, Nihon Koden) followed by recording tension and the number of beats on a recorded by means of an instantaneous heart rate counter (AT600G, Nihon Koden). For the papillary muscle, a rectangular wave electrical stimulus was applied by an electrical stimulator (SEN-3201, Nihon Koden) through bipolar platinum electrodes followed by amplification of the resulting tension by a carrier amplifier (AP-600G, Nihon Koden) and recording on a recorder. The right atrium preparations were equilibrated by replacing the nutrient solution twice every 20 minutes followed by confirmation of the reactivity of each preparation by observing the number of beats in the presence of 0.1 µmol/L of isoproterenol. After the number of beats had stabilized, the preparations were washed by replacing the nutrient solution and additionally equilibrated by replacing the nutrient solution twice every 20 minutes. Each drug was administered cumulatively followed by observing the reaction. Drug action was evaluated by determining the rate of change caused by the drug by taking the difference between the maximum reaction induced by isoproterenol and that before drug administration to be 100%, and then calculating the EC30 value as the concentration at which drug action was 30% with respect to the number of beats based on this rate of change.

[2] = Activity on intracavernous pressure by intracavernous injection to anesthetized dogs; assay type: in vivo
Procedure: Male beagle dogs having body weights of about 10 kg were anesthetized by intravenous administration of sodium pentobarbital at 35 mg/kg followed by immobilizing the animals in the dorsal position on a heating mat (SMS-2000J, Medical System Inc.) and inserting a. cannula into the trachea. A 23G winged needle for measuring internal pressure was inserted into the right corpus cavernosum, and intracavernous pressure was measured with a blood pressure measurement amplifier (AP-641G, Nihon Koden) by means of a pressure transducer (Statham P-50, Gould Co.). Moreover, a 23G winged needle for administration of drug was inserted into the right corpus cavernosum of the base followed by intracavernous injection of sodium nitroprusside (SNP, 10^-4 or 10^-3 mol/L, 0.5 ml) followed by administration of drug at the stage an increase in intracavernous pressure was confirmed. It should be noted that Compound A and milrinone were prepared with dimethyl sulfoxide-ethanol-physiological saline (1:2:30). […]
The activity of Compound A was assessed directly by administering at a volume of 0.5 ml starting from the lowest dose level at 0.243, 0.729, 2.43, 7.29, 24.3 and 72.9 µg/body (10^-6, 3 × 10^-6, 10^-5, 3 × 10^-5, 10^-4 and 3 × 10^-4 mol/L).
The effect of milrinone and zaprinast was assessed by concomitant administration of milrinone at 106 µg/body (10^-3 mol/L) and zaprinast at 136 µg/body (10^-3 mol/L) using a dosing volume of 0.5 ml each.
Intracavernous pressure was input into a polygraph (RM-6000, Nihon Koden), and together with continuously recording on a thermal pen recorder, was recorded and sampled on an external storage device (hard disk) of a computer (Macintosh Performa 5260, Apple) by means of a circulation kinetics analysis system (MP100WS, BIOPAC System) using circulation kinetics analysis software (MP/VAS 3 Ver. 1.0 beta 4.2, Physio-Tech Co., Ltd.). Maximum rate of change, duration and area under the curve (AUC) of intracavernous pressure were calculated using the circulation kinetics analysis software based on the resulting data. […]

[3] = system: isolated thoracic aorta of rabbit; test: Relaxation on norepinephrine-induced contraction in isolated thoracic aorta of rabbit; conditions: for IC50: Oryctolagus cuniculus
From the text: Rabbits were sacrificed by venesection following severing of the carotid artery under sodium pentobarbital anesthesia. The penis was immediately isolated and transferred into Krebs-Henseleit solution (composition (mmol/L): NaCl 118.4, KCl 4.7, CaCl2 2.5, MgSO4 1.2, KH2PO4 1.2, NaHCO3 25.0, glucose 11.1), which was adequately aerated with a 95% O2/5% CO2. After cutting away the connective tissue, the penis was severed longitudinally into two sections so that half of the urethra was present in each section by using an extension of the midline as the boundary. Each preparation was suspended from an FD pickup (TB-611T, Nihon Koden) at a resting tension of 0.5 g (about 5 mN) for the load in a nutrient solution consisting of 20 ml of organ bath maintained at 37°C. Contraction was recorded as the isometric contraction on a thermal pen writing recorder (WT-685G, Nihon Koden) following amplification by a carrier amplifier (AP-621G, Nihon Koden). After replacing the nutrient solution twice every 20 minutes and allowing to equilibrate, reactivity was confirmed for each preparation by observing the contraction to 1 µmol/L of norepinephrine. After contraction stabilized, the preparation was washed by replacing the nutrient solution, after which the solution was additionally replaced twice every 20 minutes and acceptable to equilibrate. To begin with, each preparation was contracted by norepinephrine (final concentration: 1 µmol/L). The preparation for which stable tension was obtained at this time was used in the experiment. Each drug was administered cumulatively in 10-fold ratios followed by observation of the reaction. The maximum relaxation reaction was determined by application of papaverine hydrochloride (final concentration: 100 µmol/L). The inhibition rate at each concentration was calculated by taking the tension during addition of norepinephrine to represent an inhibition rate of 0%, and the tension during the maximum relaxation reaction induced by addition of papaverine hydrochloride to represent an inhibition rate of 100%, followed by calculation of the concentration value at which the inhibition rate was 50% (IC50). The procedure was performed in the same manner as Experimental Example 2 with the exception of isolating the thoracic aorta and preparing in the form of a […] strip, and using 1 g (about 10 mN) of resting tension for the load.

[4] = system: papillary muscle preparation from the right ventricle; test: Action on isolated cardiac muscle of guinea-pig: force of contraction of papillary muscle preparation; conditions: 30% of isoproterenol maximum reaction
Procedure: After sacrificing male Hartley guinea-pigs by venesection, the heart was isolated and transferred to Krebs-Henseleit solution was adequately aerated with a 95% O2/5% CO2. After promptly separating the heart into the atria and ventricles, a papillary muscle preparation from the right ventricle and a right atrium preparation were prepared. Each preparation was suspended from an FD pickup (TB-611T, Nihon Koden) at a resting tension of 0.5 g (about 5 mN) for the load in a nutrient solution consisting of organ bath maintained at 31°C. Automatic contraction of the right atrium amplified by a carrier amplifier (AP-600G, Nihon Koden) followed by recording tension and the number of beats on a recorded by means of an instantaneous heart rate counter (AT600G, Nihon Koden). […] Drug action was evaluated by determining the rate of change caused by the drug by taking the difference between the maximum reaction induced by the second administration of isoproterenol and that before drug administration to be 100%, and then calculating the EC30 value as the concentration at which drug action was 30% with respect to force of contraction based on this rate of change.

[5] = system: isolated corpus cavernosum of rabbit; test: Relaxation on norepinephrine-induced contraction in isolated corpus cavernosum of rabbit; conditions: for attenuation of action by pre-treatment with L-NAME: L-NAME (1 mmol/L); for IC50: Oryctolagus cuniculus
From the text: Rabbits were sacrificed by venesection following severing of the carotid artery under sodium pentobarbital anesthesia. The penis was immediately isolated and transferred into Krebs-Henseleit solution (composition (mmol/L): NaCl 118.4, KCl 4.7, CaCl2 2.5, MgSO4 1.2, KH2PO4 1.2, NaHCO3 25.0, glucose 11.1), which was adequately aerated with a 95% O2/5% CO2. After cutting away the connective tissue, the penis was severed longitudinally into two sections so that half of the urethra was present in each section by using an extension of the midline as the boundary. Each preparation was suspended from an FD pickup (TB-611T, Nihon Koden) at a resting tension of 0.5 g (about 5 mN) for the load in a nutrient solution consisting of 20 ml of organ bath maintained at 37°C. Contraction was recorded as the isometric contraction on a thermal pen writing recorder (WT-685G, Nihon Koden) following amplification by a carrier amplifier (AP-621G, Nihon Koden). After replacing the nutrient solution twice every 20 minutes and allowing to equilibrate, reactivity was confirmed for each preparation by observing the contraction to 1 µmol/L of norepinephrine. After contraction stabilized, the preparation was washed by replacing the nutrient solution, after which the solution was additionally replaced twice every 20 minutes and acceptable to equilibrate.
To begin with, each preparation was contracted by norepinephrine (final concentration: 1 µmol/L). The preparation for which stable tension was obtained at this time was used in the experiment. Each drug was administered cumulatively in 10-fold ratios followed by observation of the reaction. The maximum relaxation reaction was determined by application of papaverine hydrochloride (final concentration: 100 µmol/L).
The inhibition rate at each concentration was calculated by taking the tension during addition of norepinephrine to represent an inhibition rate of 0%, and the tension during the maximum relaxation reaction induced by addition of papaverine hydrochloride to represent an inhibition rate of 100%, followed by calculation of the concentration value at which the inhibition rate was 50% (IC50).

[6] = intracavernous injection, Dunnett's test vs solvent group
[7] = direct relaxation, norepinephrine 1 µmol/L contraction
[8] = pre-treatment with L-NAME (1 mmol/L)

## Cl.O=c1[nH]nc(OCCCc2ccc(Cl)cc2)c(NCc2cccnc2)c1Br [Compound A, 4-bromo-6-[3-(4-chlorophenyl)propoxy]-5-(3-pyridylmethylamino)-3(2H)-pyridazinone hydrochloride]
[1]
  action on the heart relative to the action on the corpus cavernosum: less than 1/90
[1]; hydrochloride
  EC30 Heart rate: >30 µmol/L
[2]; intracavernous injection 0.243 to 72.9 µg/body (10^-6 to 3 × 10^-4 mol/L), after SNP
  intracavernous pressure: increased intracavernous pressure, nearly dose-dependently
[2]; [6]
  dose with significant effects on duration of intracavernous pressure: ≥ 2.43 µg/body
  dose with significant effects on maximum rate of change of intracavernous pressure: ≥ 2.43 µg/body
[3]; IC50 aorta compared with IC50 corpus cavernosum
  action on the cavernous body relative to that on the aorta: about 8 times
[3]; aorta, pre-treatment with SNP (1 nmol/L)
  IC50: 2710 nM
[3]; direct relaxation, norepinephrine 1 µmol/L contraction, aorta
  IC50: 2650 nM
[3]; aorta, cumulative administration
  relaxation action: dose-dependent relaxation action
[3]; aorta, SNP (1 nmol/L)
  effect of pre-treatment with SNP on action: completely unaffected
[4]; hydrochloride
  EC30 Papillary muscle contraction force: >30 µmol/L
[5]
  attenuation of action by pre-treatment with L-NAME: about one-half
[5]; [7]
  IC50: 330 nM
[5]; [8]
  IC50: 770 nM
[5]; pre-treatment with SNP (1 nmol/L)
  IC50: 150 nM
[5]; SNP (1 nmol/L)
  enhancement of action by pre-treatment with SNP: about two-fold

## O=c1[nH]nc(OCCC(O)c2ccc(Cl)cc2)c(NCc2cccnc2)c1Br (stereo not drawn) [Compound B, 4-bromo-6-[3-(4-chlorophenyl)-3-hydroxypropoxy]-5-(3-pyridylmethylamino)-3(2H)-pyridazinone hydrochloride]
[5]; [7]
  IC50: 1590 nM

## Cc1[nH]c(=O)c(C#N)cc1-c1ccncc1 [Milrinone, milrinone, reference compound]
[1]
  action on the heart relative to the action on the corpus cavernosum: about 1/2
  EC30 Heart rate: 11.7 µmol/L
[4]
  EC30 Papillary muscle contraction force: 33.9 µmol/L
[5]; [7]
  IC50: 5800 nM

## CCCOc1ccccc1-c1nc2nn[nH]c2c(=O)[nH]1 [Zaprinast, zaprinast, reference compound]
[5]
  attenuation of action by pre-treatment with L-NAME: 1/18
[5]; [7]
  IC50: 5500 nM
[5]; [8]
  IC50: > 100000 nM

Source: EP1157694A1, “REMEDIAL AGENT FOR ERECTILE DYSFUNCTION” (Nissan Chemical Industries, Ltd., priority 1998, dated 2000)
